# Assay results reported in ChEMBL document CHEMBL3745652, “Synthesis and evaluation of pretomanid (PA-824) oxazolidinone hybrids” (Bioorg Med Chem Lett, 2016).
# Active and inactive are the calls of the source. No cut-off for these calls is given here.
# Experiments:
# Enterococcus faecalis = experiment: Antimicrobial activity against Enterococcus faecalis; format: functional, organism-based
# Vero = experiment: Cytotoxicity against African green monkey Vero cells by cell titer glo assay; format: cell-based; conditions: Chlorocebus sabaeus
# Bacillus anthracis = experiment: Antimicrobial activity against Bacillus anthracis; format: functional, organism-based
# [1] = Apparent permeability from apical to basolateral side in human Caco2 cells; format: ADME, cell-based; conditions: caco-2
# Streptococcus pyogenes = experiment: Antimicrobial activity against Streptococcus pyogenes; format: functional, organism-based
# Streptococcus pneumoniae = experiment: Antimicrobial activity against Streptococcus pneumoniae; format: functional, organism-based
# [2] = Apparent permeability from basolateral to apical side in human Caco2 cells; format: ADME, cell-based; conditions: caco-2
# Escherichia coli = experiment: Antimicrobial activity against Escherichia coli; format: functional, organism-based
# Staphylococcus aureus = experiment: Antimicrobial activity against Staphylococcus aureus; format: functional, organism-based
# Bacillus subtilis = experiment: Antimicrobial activity against Bacillus subtilis; format: functional, organism-based
# [3] = Half life in mouse liver microsomes; format: ADME; conditions: for t1/2: microsomes
# [4] = Plasma protein binding in human; format: ADME, cell-free
# Klebsiella pneumoniae = experiment: Antimicrobial activity against Klebsiella pneumoniae; format: functional, organism-based
# Acinetobacter baumannii = experiment: Antimicrobial activity against Acinetobacter baumannii; format: functional, organism-based
# [5] = system: Mycobacterium tuberculosis; experiment: Antimicrobial activity against Mycobacterium tuberculosis H37Rv assessed as growth inhibition after 7 days by microbroth dilution method; format: functional; conditions: 168 h
# [6] = Volume of distribution at steady state in C57BL/6 mouse at 10 mg/kg, iv; format: ADME, organism-based; conditions: in vivo, read-out: Vdss
# [7] = Clearance in C57BL/6 mouse at 10 mg/kg, iv; format: ADME, organism-based; conditions: in vivo
# [8] = system: Mycobacterium tuberculosis; experiment: Antimicrobial activity against Mycobacterium tuberculosis H37Rv infected in C57BL/6 mouse assessed as reduction in bacterial load at 100 mg/kg, po after 28 days; format: functional, organism-based
# [9] = AUC(infinity) in C57BL/6 mouse at 10 mg/kg, iv; format: ADME, organism-based; set-up: dose 10 mg/kg, time infinity, route intravenous; conditions: in vivo
# Mus musculus = experiment: Toxicity in C57BL/6 mouse at 300 mg/kg, po after 3 days; format: organism-based; conditions: in vivo, 72 h
# [10] = Half life in C57BL/6 mouse at 10 mg/kg, iv; format: ADME, organism-based; conditions: in vivo
SMILES,Activity (Enterococcus faecalis),IC50 (Vero) [µg/mL],Activity (Bacillus anthracis),Papp [1] [×10⁻⁶ cm/s],Activity (Streptococcus pyogenes),Activity (Streptococcus pneumoniae),Papp [2] [×10⁻⁶ cm/s],Activity (Escherichia coli),Activity (Staphylococcus aureus),Activity (Bacillus subtilis),t1/2 [3] [h],PPB [4] [%],Activity (Klebsiella pneumoniae),Activity (Acinetobacter baumannii),MIC [5] [µg/mL],also measured
O=C1CSCCN1c1ccc(CO[C@@H]2COc3nc([N+](=O)[O-])cn3C2)cc1,inactive,> 100,inactive,39.56,inactive,inactive,38.05,inactive,inactive,inactive,0.51,59.8,inactive,inactive,25,
O=[N+]([O-])c1cn2c(n1)OC[C@@H](OCc1ccc(N3CCOCC3)c(F)c1)C2,inactive,23.1,inactive,43.33,inactive,inactive,33.28,inactive,inactive,inactive,7.7,51.3,inactive,inactive,,Vd [6]: 1.16 L/kg; clearance [7]: 16.5 mL/min/kg; Activity [8]: inactive; AUC(0-inf) [9]: 10100 ng·h/mL; Activity (Mus musculus): Non-toxic; half-life [10]: 0.98 h
O=[N+]([O-])c1cn2c(n1)OC[C@@H](OCc1ccc(N3CCOCC3)cc1)C2,inactive,42.3,inactive,41.49,inactive,inactive,32.25,inactive,inactive,inactive,8.3,39.4,inactive,inactive,3.13,
O=C1CCCCN1c1ccc(CO[C@@H]2COc3nc([N+](=O)[O-])cn3C2)cn1,inactive,> 100,inactive,33.68,inactive,inactive,29.56,inactive,inactive,inactive,20.4,39.6,inactive,inactive,3.13,
O=[N+]([O-])c1cn2c(n1)OC[C@@H](OCc1ccc(OC(F)(F)F)cc1)C2 [PRETOMANID],inactive,44,inactive,31.58,inactive,inactive,13.14,inactive,inactive,inactive,,92.9,inactive,inactive,0.39,half-life ([3]; liver microsomes): 8.1 h
O=[N+]([O-])c1cn2c(n1)OC[C@@H](OCc1ccc(N3CCSCC3)cc1)C2,inactive,13.7,inactive,26.68,inactive,inactive,26.13,inactive,inactive,inactive,0.07,74.5,inactive,inactive,6.25,
O=C1CSCCN1c1ccc(CO[C@@H]2COc3nc([N+](=O)[O-])cn3C2)cn1,inactive,15.3,inactive,40,inactive,inactive,31.44,inactive,inactive,inactive,0.63,32.1,inactive,inactive,50,
O=[N+]([O-])c1cn2c(n1)OC[C@@H](OCc1ccc(N3CCCCC3)c(F)c1)C2,inactive,56.2,inactive,35.46,inactive,inactive,28.47,inactive,inactive,inactive,0.41,85.6,inactive,inactive,< 0.2,
O=C1CCCCN1c1ccc(CO[C@@H]2COc3nc([N+](=O)[O-])cn3C2)cc1F,inactive,> 100,inactive,46.26,inactive,inactive,30.45,inactive,inactive,inactive,3.5,74.8,inactive,inactive,3.13,
O=[N+]([O-])c1cn2c(n1)OC[C@@H](OCc1ccc(N3CCOCC3)nc1)C2,inactive,> 100,inactive,37.13,inactive,inactive,27.63,inactive,inactive,inactive,28.1,14.5,inactive,inactive,3.13,
O=[N+]([O-])c1cn2c(n1)OC[C@@H](OCc1ccc(N3CCSCC3)c(F)c1)C2,inactive,14.2,inactive,32.11,inactive,inactive,24.26,inactive,inactive,inactive,0.06,83.2,inactive,inactive,3.13,
O=[N+]([O-])c1cn2c(n1)OC[C@@H](OCc1ccc(N3CCCCC3)cc1)C2,inactive,11.6,inactive,31.76,inactive,inactive,26.33,inactive,inactive,inactive,0.49,83,inactive,inactive,0.39,
CC(=O)NC[C@H]1CN(c2ccc(N3CCOCC3)c(F)c2)C(=O)O1 [LINEZOLID],,,,,,,,,,,,17.8,,,0.3,
O=C1CSCCN1c1ccc(CO[C@@H]2COc3nc([N+](=O)[O-])cn3C2)cc1F,inactive,> 100,inactive,33.39,inactive,inactive,37.05,inactive,inactive,inactive,0.6,77.6,inactive,inactive,50,
O=C1COCCN1c1ccc(CO[C@@H]2COc3nc([N+](=O)[O-])cn3C2)cn1,inactive,> 100,inactive,43.41,inactive,inactive,23.82,inactive,inactive,inactive,> 4,27.9,inactive,inactive,3.13,
O=[N+]([O-])c1cn2c(n1)OC[C@@H](OCc1ccc(N3CCCCC3)nc1)C2,inactive,> 100,inactive,37.64,inactive,inactive,29.04,inactive,inactive,inactive,1.3,76.7,inactive,inactive,0.78,
O=C1CCCCN1c1ccc(CO[C@@H]2COc3nc([N+](=O)[O-])cn3C2)cc1,inactive,> 100,inactive,47.25,inactive,inactive,34.2,inactive,inactive,inactive,6.7,66.4,inactive,inactive,1.56,
